Laboratory results from PubChem BioAssay (NCI).
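Briefly, cells in 96-well plates were exposed to five compound concentrations for 48 h, and endpoints were estimated by linear interpolation. TGI is the concentration that stops growth completely.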

Legend:
Assay in all cases: DTP human tumour cell line panel, 48 h
[1] = test system: 786-0 renal
[2] = test system: A549 NSCLC
[3] = test system: ACHN renal
[4] = test system: BT-549 breast
[5] = test system: CAKI-1 renal
[6] = test system: COLO 205 colon
[7] = test system: DU-145 prostate
[8] = test system: HCC-2998 colon
[9] = test system: HCT-116 colon
[10] = test system: HCT-15 colon
[11] = test system: HL-60(TB) leukemia
[12] = test system: HOP-62 NSCLC
[13] = test system: HOP-92 NSCLC
[14] = test system: HS 578T breast
[15] = test system: HT29 colon
[16] = test system: K-562 leukemia
[17] = test system: KM12 colon
[18] = test system: LOX IMVI melanoma
[19] = test system: M14 melanoma
[20] = test system: MALME-3M melanoma
[21] = test system: MCF7 breast
[22] = test system: MDA-MB-231 breast
[23] = test system: MDA-MB-435
[24] = test system: MDA-N
[25] = test system: MOLT-4 leukemia
[26] = test system: NCI-H23 lung
[27] = test system: NCI-H522 lung
[28] = test system: NCI/ADR-RES ovarian
[29] = test system: OVCAR-3 ovarian
[30] = test system: OVCAR-4 ovarian
[31] = test system: OVCAR-5 ovarian
[32] = test system: OVCAR-8 ovarian
[33] = test system: PC-3 prostate
[34] = test system: RPMI-8226 leukemia
[35] = test system: SF-268 CNS
[36] = test system: SF-295 CNS
[37] = test system: SF-539 CNS
[38] = test system: SK-MEL-28 melanoma
[39] = test system: SK-MEL-5 melanoma
[40] = test system: SK-OV-3 ovarian
[41] = test system: SN12C renal
[42] = test system: SNB-19 CNS
[43] = test system: SNB-75 CNS
[44] = test system: SR leukemia
[45] = test system: SW-620 colon
[46] = test system: TK-10 renal
[47] = test system: U251 CNS
[48] = test system: UACC-257 melanoma
[49] = test system: A498 renal
[50] = test system: CCRF-CEM leukemia
[51] = test system: EKVX NSCLC
[52] = test system: IGROV1 ovarian
[53] = test system: RXF 393 renal
[54] = test system: SK-MEL-2 melanoma
[55] = test system: UACC-62 melanoma
[56] = test system: UO-31 renal
[57] = test system: NCI-H226 lung
[58] = test system: NCI-H460 lung

SMILES: COc1nc(N)c(C#N)c(C#N)c1C#N
- TGI [1]: > 10 µM
- TGI [2]: > 10 µM
- TGI [3]: > 10 µM
- TGI [4]: > 10 µM
- TGI [5]: > 10 µM
- TGI [6]: > 10 µM
- TGI [7]: > 10 µM
- TGI [8]: > 10 µM
- TGI [9]: > 10 µM
- TGI [10]: > 10 µM
- TGI [11]: > 10 µM
- TGI [12]: > 10 µM
- TGI [13]: > 10 µM
- TGI [14]: > 10 µM
- TGI [15]: > 10 µM
- TGI [16]: > 10 µM
- TGI [17]: > 10 µM
- TGI [18]: > 10 µM
- TGI [19]: > 10 µM
- TGI [20]: > 10 µM
- TGI [21]: > 10 µM
- TGI [22]: > 10 µM
- TGI [23]: > 10 µM
- TGI [24]: > 10 µM
- TGI [25]: > 10 µM
- TGI [26]: > 10 µM
- TGI [27]: > 10 µM
- TGI [28]: > 10 µM
- TGI [29]: > 10 µM
- TGI [30]: > 10 µM
- TGI [31]: > 10 µM
- TGI [32]: > 10 µM
- TGI [33]: > 10 µM
- TGI [34]: > 10 µM
- TGI [35]: > 10 µM
- TGI [36]: > 10 µM
- TGI [37]: > 10 µM
- TGI [38]: > 10 µM
- TGI [39]: > 10 µM
- TGI [40]: > 10 µM
- TGI [41]: > 10 µM
- TGI [42]: > 10 µM
- TGI [43]: > 10 µM
- TGI [44]: > 10 µM
- TGI [45]: > 10 µM
- TGI [46]: > 10 µM
- TGI [47]: > 10 µM
- TGI [48]: > 10 µM

SMILES: COC(=O)[C@H](NC(=O)OC(C)(C)C)[C@H]1COC(C)(C)O1
- TGI [1]: > 100 µM
- TGI [49]: > 100 µM
- TGI [2]: > 100 µM
- TGI [3]: > 100 µM
- TGI [4]: > 100 µM
- TGI [5]: > 100 µM
- TGI [50]: > 100 µM
- TGI [6]: > 100 µM
- TGI [7]: > 100 µM
- TGI [51]: > 100 µM
- TGI [8]: > 100 µM
- TGI [9]: > 100 µM
- TGI [10]: > 100 µM
- TGI [11]: > 100 µM
- TGI [12]: > 100 µM
- TGI [15]: > 100 µM
- TGI [52]: > 100 µM
- TGI [16]: > 100 µM
- TGI [17]: > 100 µM
- TGI [18]: > 100 µM
- TGI [19]: > 100 µM
- TGI [20]: > 100 µM
- TGI [21]: > 100 µM
- TGI [22]: > 100 µM
- TGI [23]: > 100 µM
- TGI [24]: > 100 µM
- TGI [25]: > 100 µM
- TGI [26]: > 100 µM
- TGI [27]: > 100 µM
- TGI [28]: > 100 µM
- TGI [29]: > 100 µM
- TGI [30]: > 100 µM
- TGI [31]: > 100 µM
- TGI [32]: > 100 µM
- TGI [33]: > 100 µM
- TGI [34]: > 100 µM
- TGI [53]: > 100 µM
- TGI [35]: > 100 µM
- TGI [36]: > 100 µM
- TGI [37]: > 100 µM
- TGI [54]: > 100 µM
- TGI [38]: > 100 µM
- TGI [39]: > 100 µM
- TGI [40]: > 100 µM
- TGI [41]: > 100 µM
- TGI [42]: > 100 µM
- TGI [44]: > 100 µM
- TGI [45]: > 100 µM
- TGI [46]: > 100 µM
- TGI [47]: > 100 µM
- TGI [48]: > 100 µM
- TGI [55]: > 100 µM
- TGI [56]: > 100 µM

SMILES: Cc1cc(C)c(S(=O)(=O)N2CCN(S(=O)(=O)c3c(C)cc(C)cc3C)OCCCCCO2)c(C)c1
- TGI [1]: > 100 µM
- TGI [49]: > 100 µM
- TGI [2]: > 100 µM
- TGI [3]: > 100 µM
- TGI [4]: > 100 µM
- TGI [5]: > 100 µM
- TGI [50]: > 100 µM
- TGI [6]: > 100 µM
- TGI [7]: > 100 µM
- TGI [51]: > 100 µM
- TGI [9]: > 100 µM
- TGI [10]: > 100 µM
- TGI [11]: > 100 µM
- TGI [12]: > 100 µM
- TGI [13]: > 100 µM
- TGI [14]: > 100 µM
- TGI [15]: > 100 µM
- TGI [52]: > 100 µM
- TGI [16]: > 100 µM
- TGI [17]: > 100 µM
- TGI [18]: > 100 µM
- TGI [19]: > 100 µM
- TGI [20]: > 100 µM
- TGI [21]: > 100 µM
- TGI [23]: > 100 µM
- TGI [24]: > 100 µM
- TGI [25]: > 100 µM
- TGI [57]: > 100 µM
- TGI [26]: > 100 µM
- TGI [58]: > 100 µM
- TGI [27]: > 100 µM
- TGI [28]: > 100 µM
- TGI [29]: > 100 µM
- TGI [30]: > 100 µM
- TGI [31]: > 100 µM
- TGI [32]: > 100 µM
- TGI [33]: > 100 µM
- TGI [35]: > 100 µM
- TGI [36]: > 100 µM
- TGI [54]: > 100 µM
- TGI [38]: > 100 µM
- TGI [39]: > 100 µM
- TGI [40]: > 100 µM
- TGI [41]: > 100 µM
- TGI [42]: > 100 µM
- TGI [45]: > 100 µM
- TGI [46]: > 100 µM
- TGI [47]: > 100 µM
- TGI [48]: > 100 µM
- TGI [55]: > 100 µM
- TGI [56]: > 100 µM
